One series concerns CCRF-CEM. As to the kind of experiment: Concentration required to inhibit against HIV strain IIIB in CEM cell. The series is classed as functional. The settings on record: Homo sapiens, read-out: ED50 (the source's name).
The nature of series [1]: Minimum cellular toxicity against the HIV strain IIIB in CEM cells was determined. It counts as cell-based, CCRF-CEM. The conditions noted are these: human, read-out: TD50 (the source's name).
The target of series [2] is Human immunodeficiency virus type 1 protease (Human immunodeficiency virus 1, UniProt Q72874). As to the kind of experiment: Inhibitory activity against HIV-1 protease.

pEC50, pKi: −log10 of the molar value.

Turning to `Cc1c(O)cccc1C(=O)N[C@@H](Cc1ccccc1)[C@H](O)CN1C[C@H]2CCCC[C@H]2C[C@H]1C(=O)NC(C)(C)C`, the pEC50 in the series on CCRF-CEM was 7.48. In addition, the CC50 in series [1] was above 5 µM.
A word on the pKi: it is −log10 of the Ki, conventionally taken in molar units. A high value points to a small Ki. Take `Cc1c(O)cccc1C(=O)N[C@@H](CSc1ccc2ccccc2c1)[C@H](O)CN1C[C@H]2CCCC[C@H]2C[C@H]1C(=O)NC(C)(C)C`: in the series on CCRF-CEM, the pEC50 was 7.00. This molecule also had a pKi in series [2] of 7.01.

The record behind these values is ChEMBL document CHEMBL1130253 (J Med Chem, 1997).
